In PubChem BioAssay (NCI):
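Protocol summary: plate cells (96-well), add compound at 5 concentrations, incubate 48 h, interpolate endpoints linearly. At the GI50, growth is halved. TGI is the concentration that stops growth completely.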

Assays:
Test in all cases: growth of human tumour cells (NCI), 48 h
CCRF-CEM leukemia = system: CCRF-CEM leukemia
HCC-2998 colon = system: HCC-2998 colon
HCT-116 colon = system: HCT-116 colon
HOP-62 NSCLC = system: HOP-62 NSCLC
PC-3 prostate = system: PC-3 prostate
SF-539 CNS = system: SF-539 CNS
SK-OV-3 ovarian = system: SK-OV-3 ovarian
UO-31 renal = system: UO-31 renal
K-562 leukemia = system: K-562 leukemia
OVCAR-8 ovarian = system: OVCAR-8 ovarian

Row | SMILES | TGI (CCRF-CEM leukemia) [µM] | TGI (HCC-2998 colon) [µM] | TGI (HCT-116 colon) [µM] | TGI (HOP-62 NSCLC) [µM] | TGI (PC-3 prostate) [µM] | TGI (SF-539 CNS) [µM] | TGI (SK-OV-3 ovarian) [µM] | TGI (UO-31 renal) [µM] | TGI (K-562 leukemia) [µM] | TGI (OVCAR-8 ovarian) [µM] | GI50 (CCRF-CEM leukemia) [µM] | GI50 (HCT-116 colon) [µM] | GI50 (HOP-62 NSCLC) [µM] | GI50 (K-562 leukemia) [µM] | GI50 (OVCAR-8 ovarian) [µM] | GI50 (PC-3 prostate) [µM] | GI50 (SF-539 CNS) [µM] | GI50 (SK-OV-3 ovarian) [µM] | GI50 (UO-31 renal) [µM] | GI50 (HCC-2998 colon) [µM]
1 | CCc1nc(N)nc(N)c1-c1ccc(Cl)c(Cl)c1 | > 100 | > 100 | > 100 | > 100 | > 100 | > 100 | > 100 | > 100 | – | – | – | – | – | – | – | – | – | – | – | –
2 | COc1ccccc1C1C(C(=O)O)=C(CO)Oc2cc3c(cc21)OCO3 (stereo not given) | > 100 | – | – | – | – | > 100 | > 100 | > 100 | > 100 | > 100 | – | – | – | – | – | – | – | – | – | –
3 | Cc1ccc(S(=O)(=O)Oc2cc(-c3ccccc3)nc3ccccc23)cc1 | > 100 | 4.49 | 15.9 | 18.8 | – | 4.87 | 5.23 | 35.6 | 34.8 | > 77.6 | – | – | – | – | – | – | – | – | – | –
4 | NC(Cc1cccc([N+](=O)[O-])c1)C(=O)O (stereo not given) | > 100 | > 100 | > 100 | > 100 | > 100 | > 100 | > 100 | > 100 | > 100 | > 100 | – | – | – | – | – | – | – | – | – | –
5 | O=[N+]([O-])c1ccc(C=C2C(Cl)=C(Cl)C(Cl)=C2Cl)cc1 | 6.57 | – | 3.37 | 4.38 | 8.35 | 7.09 | 29.9 | 3.16 | > 100 | 5.28 | 2.21 | 1.79 | 1.96 | 3.68 | 2.16 | 2.71 | 2.54 | 12.1 | 1.47 | –
6 | CC1CC=CC(O)C1 (stereo not given) | > 100 | > 100 | > 100 | > 100 | – | > 100 | > 100 | > 100 | > 100 | > 100 | – | – | – | – | – | – | – | – | – | –
7 | Cc1ccc2c(n1)C(=O)c1[nH]c3ccccc3c1C2=O | > 100 | 6.37 | – | – | > 100 | 5.11 | > 100 | 10.7 | > 100 | > 100 | 3.45 | – | – | 3.14 | 2.61 | 1.63 | 2.15 | 4.95 | 1.63 | 1.88
8 | NCCCNc1nc2ccccc2c2c(=O)c3cc(OC(F)(F)F)ccc3sc12 | – | 3.25 | – | – | 3.19 | 3.15 | – | 2.9 | – | 4.77 | – | – | – | – | 2.01 | 1.67 | 1.68 | – | 1.49 | 1.71
9 | CCC[CH2][Ge]([CH2]CCC)([CH2]CCC)[O]C(=O)CC(=O)c1ccccc1 | 10.6 | 6.16 | 12.3 | 13.6 | – | 6.17 | 14 | 15.9 | 14.7 | 18.3 | 0.266 | 0.191 | 2.2 | 0.346 | 1.65 | – | 1.57 | 0.667 | 1.66 | 1.3
10 | C[C@]12C=CC(=O)C=C1CC[C@H]1[C@@H]3C[C@@H](O)[C@](O)(C(=O)CO)[C@@]3(C)C[C@H](O)[C@@]12F | > 100 | > 100 | > 100 | > 100 | – | > 100 | > 100 | > 100 | > 100 | > 100 | – | – | – | – | – | – | – | – | – | –
11 | NC(N)=NCCN=C(N)N | > 100 | > 100 | > 100 | > 100 | > 100 | > 100 | > 100 | > 100 | > 100 | > 100 | – | – | – | – | – | – | – | – | – | –
12 | NC(CCCCP(=O)(O)O)C(=O)O (stereo not given) | > 100 | > 100 | > 100 | – | > 100 | > 100 | > 100 | > 100 | > 100 | > 100 | – | – | – | – | – | – | – | – | – | –
13 | Cc1nc(N)sc1-c1ccnc(Nc2ccc(N3CCOCC3)cc2)n1 | > 100 | > 100 | > 100 | 60.3 | > 100 | – | > 100 | > 51.1 | > 100 | > 100 | 1.16 | 1.52 | 1.87 | 1.6 | 2.78 | 1.81 | – | 2.62 | 1.28 | 11.8
14 | C=CC(Br)(CBr)CCC(Cl)C(C)C (stereo not given) | 2.64 | 1.52 | 12 | 3.2 | 14.1 | 3.84 | 18.6 | 3.08 | 5.4 | – | – | – | – | – | – | – | – | – | – | –
15 | CC(=O)Oc1cccc2c(/C=N/NC(N)=S)ncc(C)c12 | > 100 | 18.9 | 32.6 | 14.6 | 33.6 | 1.98 | 17.1 | 4.43 | > 100 | > 34.9 | – | – | – | – | – | – | – | – | – | –
16 | COc1ccc(C2CC(c3cccc(Nc4ccncc4)c3)=NN2c2cc(Cl)cc(Cl)c2)cc1 (stereo not given) | > 100 | 2.85 | – | 4.66 | 3.16 | 3.14 | 31.4 | 2.74 | 5.57 | – | 2.81 | – | 2.08 | 2.41 | – | 1.54 | 1.68 | 11.3 | 1.36 | 1.47
17 | O=NN(CCCl)C(=O)NC1CCSc2ccccc21 (stereo not given) | > 100 | > 100 | > 100 | > 100 | – | > 74.5 | > 100 | > 100 | > 100 | > 100 | – | – | – | – | – | – | – | – | – | –
18 | COc1cc(C[S+]2CCCC2)c(SC)cc1C[S+]1CCCC1 | > 100 | > 100 | > 100 | > 100 | – | > 100 | > 100 | > 100 | > 100 | > 100 | – | – | – | – | – | – | – | – | – | –
19 | CC(=O)OC1CCC2(C)C3CCC4(C)C(c5ccc(=O)oc5)CC5OC54C3CCC2(O)C1 (stereo not given) | 2.7 | 14 | 4.61 | 3.41 | – | 2.78 | 10.2 | 9.38 | 24 | 7.73 | – | – | – | – | – | – | – | – | – | –
20 | c1ccc(N=C2SC(=NC3CCCCC3)N(C3CCCCC3)C2=Nc2ccccc2)cc1 | > 100 | > 100 | > 100 | > 100 | > 100 | – | > 100 | > 100 | > 100 | > 100 | – | – | – | – | – | – | – | – | – | –
21 | O=C(OC(=O)n1ccc2ccccc21)n1ccc2ccccc21 | > 100 | > 100 | > 100 | > 100 | – | > 100 | > 100 | > 100 | > 100 | > 100 | – | – | – | – | – | – | – | – | – | –
